The target of this test is full-length MERS-CoV N protein (Middle East respiratory syndrome-related coronavirus, UniProt K9N4V7).

With `CN(C)Cc1c[nH]c2ccc(OCc3ccccc3)cc12` [PSX-01, 5-benzyloxygramine], the “radius of gyration (Rg) of N protein” value is given as 65.
